Read-outs that look alike come from different tables or passages of the source. Bounds are passed on as bounds.

In one data set the test system is A375 cells. Description: A375 cell proliferation inhibition test. The note with it: Homo sapiens, A-375; Inhibitory activities of compounds on A375 cells, 72 h; read-out: IC50/nM. The class given is cell-based. The method, then:
A375 cells (ATCC, CRL-1619) were cultured in DMEM complete medium (+10% FBS) in a CO2 incubator at 37°C for 48 h. The cells were trypsinised and counted, and then the density was adjusted to 1.67 × 10^4 cells/mL. 90 µL (1500 cells) of cells were inoculated into each well of a 96-well transparent bottom plate, and the plate was transferred to a CO2 incubator and the cells were cultured at 37°C overnight. After the cells were incubated overnight, 10 µL of the diluted compound (final concentration starting from 10 µM, 3-fold dilution, 11 concentrations) was added to each well using a multi-channel pipette. The […] control was a serum-free medium containing DMSO. After mixing evenly, the cells were placed in a CO2 incubator at 37°C for 72 h. After the incubation, the CellCounting-Lite®2.0 kit detection solution (Vazyme, DD1101-03) was taken out and returned to room temperature. 100 µL of CellCounting-Lite2.0 detection solution was added to each well, the plate was sealed with a sealing film, and the plate was placed on a shaker for shaking for 15 min (the whole process should be kept away from light). The Luminescence module of the microplate reader (BMG LRBTECH) was used to detect the fluorescence signal value LUM of each well. The formula Inhibition rate% = ((LUM Solvent−LUM Compound)/(LUM Solvent))∗100% [formula] was used to calculate the inhibition rate of the compound. The Graphpad software log(inhibitor) vs. response -- Variable slope (four parameters) equation was used to perform fitting analysis and calculate the IC50value of the sample. The ordinate of the data is the percentage of inhibition rate, and the abscissa is the logarithm of the sample concentration (Log10).

Data set [1] in a line: Pharmacokinetic test in mice. The class given is in vivo, ICR mice. The settings on record: i.g. (10 mg/kg), relative to Control compound 1.
Data set [2] can be described thus: Pharmacokinetic test in mice. Format: in vivo, ICR mice. The settings on record: mouse, plasma; for Vd: read-out: Vdss. The method, then:
3.1 Experimental animals: Male ICR mice, 20-25 g, 6 mice/compound, purchased from Chengdu Dossy Experimental Animals Co., Ltd.
3.2 Experimental design: On the day of the experiment, the ICR mice were randomly grouped according to their body weights. The animals were fasted with water available for 12-14 h one day before the administration, and were fed 4 h after the administration. Table 3.1 Administration information
vehicle for intravenous administration: 5% DMA + 5% Solutol + 90% Saline; vehicle for intragastric administration: 0.5% MC
Before and after administration, 0.06 mL of blood was taken from the orbit under isoflurane anaesthesia and placed in an EDTAK2 centrifuge tube. The tube was centrifuged at 5000 rpm at 4°C for 10 min, and plasma was collected. The blood sampling time points for both the intravenous administration group and intragastric administration group were 0 min, 5 min, 15 min, 30 min, 1 h, 2 h, 4 h, 7 h, 24 h, and 48 h. Before analysis and detection, all samples were stored at -80°C, and the samples were quantitatively analysed by LC-MS/MS. Table 3.2 Pharmacokinetic parameters of test compounds in plasma of mice

`N#Cc1c(NS(=O)(=O)N2CC(=CC(F)F)C2)ccc(F)c1Oc1ccc2ncn(CC(F)F)c(=O)c2c1` [Compound 26]: the IC50 with A375 cells fell in the range of 10 to 50 nM.
For the molecule `CC=C1CN(S(=O)(=O)Nc2ccc(F)c(Oc3ccc4c(c3)C3=NCCN3C=N4)c2C#N)C1` [Compound 22], the IC50 with A375 cells lay in the range of 10 to 50 nM.
Take `C=C1CN(S(=O)(=O)Nc2ccc(F)c(Oc3ccc4ncc(N5CCOCC5)nc4c3)c2C#N)C1` [Compound 23]: the IC50 with A375 cells was no more than 10 nM.
In the case of `C=C1CC(Cn2cnc3ccc(Oc4c(F)ccc(NS(=O)(=O)N5CC6(CCC6)C5)c4C#N)cc3c2=O)C1` [Compound 9], in the data set with A375 cells, the IC50 lay within 10 to 50 nM.
In the case of `N#Cc1c(NS(=O)(=O)N2CC(=CF)C2)ccc(F)c1Oc1ccc2ncn(CC(F)F)c(=O)c2c1` [Compound 11], the “Fold change in brain-blood ratio relative to control compound” value in data set [1] stood at 6.1. Besides, the IC50 with A375 cells is no more than 10 nM. Further, in data set [2] (iv, i.v. (2.5 mg/kg)), the AUC(0-t) amounted to 245 µg·h/mL, the clearance worked out at 0.163 mL/min/kg, the half-life is 11.1 h and the Vd is 0.123 L/kg. In data set [2] (po, i.g. (10 mg/kg)), this molecule gave a bioavailability of 98.1%, an AUC(0-t) of 962 µg·h/mL and a half-life of 8.81 h.
On to `N#Cc1c(NS(=O)(=O)N2CC3(CCC3)C2)ccc(F)c1Oc1ccc2ncc(N3CCOCC3)nc2c1` [Compound 2], for which, in the data set on A375 cells, the IC50 lay within 10 to 50 nM.
For `CC(C)=C1CN(S(=O)(=O)Nc2ccc(F)c(Oc3ccc4ncn(CC(F)F)c(=O)c4c3)c2C#N)C1` [Compound 4], the IC50 in the data set on A375 cells lay within 10 to 50 nM.
Regarding `C=C1CCN(S(=O)(=O)Nc2ccc(F)c(Oc3ccc4ncn(CC(F)F)c(=O)c4c3)c2C#N)C1` [Compound 6], in data set [1], the “Fold change in brain-blood ratio relative to control compound” value was 24.9. In the data set on A375 cells, the IC50 is no more than 10 nM. In data set [2] (in vivo, iv, i.v. (2.5 mg/kg)), the AUC(0-t) came out at 148 µg·h/mL, the clearance is 0.282 mL/min/kg, the half-life was 6.77 h and the Vd was 0.118 L/kg. In data set [2] (in vivo, po, i.g. (10 mg/kg)), the AUC(0-t) was determined as 373 µg·h/mL and the half-life is 4.47 h.
For `N#Cc1c(NS(=O)(=O)N2CC(=CC(F)(F)F)C2)ccc(F)c1Oc1ccc2ncn(CC(F)F)c(=O)c2c1` [Compound 25], the IC50 in the data set with A375 cells lay in the range of 10 to 50 nM.
On the same count and under the same terms, in the case of `CC=C1CN(S(=O)(=O)Nc2ccc(F)c(Oc3ccc4ncn(C)c(=O)c4c3)c2C#N)C1` [Compound 27] it was no more than 10 nM.
For `C=C1CN(S(=O)(=O)Nc2ccc(F)c(Oc3ccc4ncn(CCF)c(=O)c4c3)c2C#N)C1` [Compound 5], the IC50 with A375 cells was no more than 10 nM.
On to `CN(C1CC(=C(F)F)C1)S(=O)(=O)Nc1ccc(F)c(Oc2ccc3ncn(CC(F)F)c(=O)c3c2)c1C#N` (stereo not drawn) [Compound 12], for which, in the data set on A375 cells, the IC50 is 10 to 50 nM.
For the molecule `Cc1nnc2c3cc(Oc4c(F)ccc(NS(=O)(=O)N5CC6(CCC6)C5)c4C#N)ccc3ncn12` [Compound 1], the IC50 in the data set with A375 cells was no more than 10 nM.
In the case of `N#Cc1c(NS(=O)(=O)N2CCC(=CF)C2)ccc(F)c1Oc1ccc2ncn(CC(F)F)c(=O)c2c1` (single isomer, unassigned) [Compound 15], the IC50 with A375 cells is no more than 10 nM.
Regarding `C=C1CN(S(=O)(=O)Nc2ccc(F)c(Oc3ccc4ncn(CC(F)F)c(=O)c4c3)c2C#N)CC1F` (stereo not drawn) [Compound 21], in the data set on A375 cells, the IC50 is no more than 10 nM.

(Values after EP4813985A1, “PREPARATION OF QUINAZOLINONE DERIVATIVE AS KINASE INHIBITOR, AND USE THEREOF” (Xizang Haisco Pharmaceutical Co., Ltd., priority 2023, dated 2025).)
